One test deals with T1, human recombinant HDAC6 (Homo sapiens, UniProt Q9UBN7).
T1 construct: purchased Calbiochem 382180
T1 sequence (Q9UBN7 1-1215): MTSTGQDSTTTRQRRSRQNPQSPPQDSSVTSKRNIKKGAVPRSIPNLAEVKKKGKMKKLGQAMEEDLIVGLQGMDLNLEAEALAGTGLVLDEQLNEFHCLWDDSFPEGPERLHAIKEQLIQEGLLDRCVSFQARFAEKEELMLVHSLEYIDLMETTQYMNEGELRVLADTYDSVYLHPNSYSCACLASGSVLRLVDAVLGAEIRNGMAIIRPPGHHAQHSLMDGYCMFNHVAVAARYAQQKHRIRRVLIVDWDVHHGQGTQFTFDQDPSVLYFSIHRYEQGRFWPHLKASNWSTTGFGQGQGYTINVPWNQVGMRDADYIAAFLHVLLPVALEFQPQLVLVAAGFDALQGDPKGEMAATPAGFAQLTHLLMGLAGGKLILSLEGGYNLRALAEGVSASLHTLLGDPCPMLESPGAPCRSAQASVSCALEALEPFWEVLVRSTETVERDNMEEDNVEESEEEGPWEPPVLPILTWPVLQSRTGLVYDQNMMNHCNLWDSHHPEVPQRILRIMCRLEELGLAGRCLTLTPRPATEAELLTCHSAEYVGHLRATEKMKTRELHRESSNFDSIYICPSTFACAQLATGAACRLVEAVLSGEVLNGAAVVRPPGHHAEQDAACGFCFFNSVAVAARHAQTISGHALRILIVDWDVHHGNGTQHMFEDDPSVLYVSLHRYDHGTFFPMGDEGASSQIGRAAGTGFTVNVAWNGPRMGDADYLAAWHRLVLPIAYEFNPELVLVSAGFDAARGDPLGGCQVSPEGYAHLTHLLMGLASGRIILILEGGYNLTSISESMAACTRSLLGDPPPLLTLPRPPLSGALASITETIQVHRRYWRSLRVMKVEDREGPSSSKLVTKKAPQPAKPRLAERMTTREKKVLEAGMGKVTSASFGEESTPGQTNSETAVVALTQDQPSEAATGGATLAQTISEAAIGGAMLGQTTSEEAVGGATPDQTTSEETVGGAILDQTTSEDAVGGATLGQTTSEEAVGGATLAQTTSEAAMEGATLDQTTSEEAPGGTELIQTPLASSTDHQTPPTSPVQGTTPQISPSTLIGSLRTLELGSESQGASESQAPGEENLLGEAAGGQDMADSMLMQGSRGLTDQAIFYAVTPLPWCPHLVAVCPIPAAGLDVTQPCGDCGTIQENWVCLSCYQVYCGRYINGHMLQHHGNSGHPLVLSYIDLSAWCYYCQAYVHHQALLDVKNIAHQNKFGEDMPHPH
The test is described as follows: HDAC6 enzyme activity inhibition assay (in vitro, fluorimetric). Format: biochemical. The note with it: for HDAC6 selectivity (fold): HDAC6 selectivity over HDAC1; for IC50: human recombinant HDAC6, fluorimetric kit, same protocol as HDAC1. A digest of the protocol: (§1)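 IC50 values derive from fluorescence (Ex 360, Em 460) after developer treatment (30 min) of reactions of recombinant human HDAC1 or HDAC6 with 10 μM Fluor de Lys-SIRT1 substrate (60 min, 30 °C). Compounds were serially diluted 5-fold; 0.3 μg enzyme was used for HDAC1, with HDAC6 tested identically.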

Another test addresses T2, human recombinant HDAC1 (Homo sapiens, UniProt Q13547).
T2 construct: purchased Enzo Life Science BML-SE456
The test can be described thus: HDAC1 enzyme activity inhibition assay (in vitro, fluorimetric). The class given is biochemical. The note with it: human recombinant HDAC1, fluorimetric kit, 30° C. 60 minutes. A digest of the protocol: as §1

Here are results for 19 molecules from patent US10287255B2, “Compounds as histone deacetylase 6 inhibitors and pharmaceutical compositions comprising the same” (CHONG KUN DANG PHARMACEUTICAL CORP., priority 2014, dated 2019).

By IC50 is commonly meant the concentration that gives 50% inhibition.

T2 sequence (Q13547 whole entry): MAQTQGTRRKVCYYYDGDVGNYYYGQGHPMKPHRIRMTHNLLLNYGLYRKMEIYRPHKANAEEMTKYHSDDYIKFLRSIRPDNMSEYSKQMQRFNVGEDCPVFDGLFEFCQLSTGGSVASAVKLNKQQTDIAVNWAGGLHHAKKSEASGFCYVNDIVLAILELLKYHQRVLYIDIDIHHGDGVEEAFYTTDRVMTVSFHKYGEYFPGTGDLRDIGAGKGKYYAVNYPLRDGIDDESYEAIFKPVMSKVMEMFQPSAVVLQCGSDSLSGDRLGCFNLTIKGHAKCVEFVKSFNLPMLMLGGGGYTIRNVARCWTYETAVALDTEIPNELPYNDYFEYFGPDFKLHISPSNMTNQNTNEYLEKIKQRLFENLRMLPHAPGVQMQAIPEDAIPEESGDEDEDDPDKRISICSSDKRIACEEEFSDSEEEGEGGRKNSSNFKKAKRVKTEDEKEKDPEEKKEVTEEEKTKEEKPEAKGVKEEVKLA

Turning to `CC(=O)N1CCN(Cc2cccc(CN3[C@H](C)CN(Cc4ccc(C(=O)NO)cc4)C[C@@H]3C)c2)CC1` [Compound 431, 4-(((3R,5S)-4-(3-((4-acetylpiperazin-1-yl)methyl)benzyl)-3,5-dimethylpiperazin-1-yl)methyl)-N-hydroxybenzamide], at human recombinant HDAC6, the “HDAC6 selectivity (fold)” value was determined as 611 fold. The IC50 on human recombinant HDAC6 was determined as 22 nM; on human recombinant HDAC1, 13400 nM.
As to `C[C@@H]1CN(C(=O)c2ccc(C(=O)NO)cc2)C[C@H](C)N1Cc1ccccc1` [Compound 814, 4-((3R,5S)-4-benzyl-3,5-dimethylpiperazine-1-carbonyl)-N-hydroxybenzamide], at human recombinant HDAC6, the “HDAC6 selectivity (fold)” value worked out at 20 fold and the IC50 was 990 nM. Further, the IC50 on human recombinant HDAC1 came to 20600 nM.
In the case of `C[C@@H]1CN(Cc2ccc(/C=C/C(=O)NO)cc2)C[C@H](C)N1Cc1ccccc1` [Compound 172, (E)-3-(4-(((3R,5S)-4-benzyl-3,5-dimethylpiperazin-1-yl)methyl)phenyl)-N-hydroxyacrylamide], the “HDAC6 selectivity (fold)” value at human recombinant HDAC6 was determined as 35 fold. Besides, the IC50 at human recombinant HDAC6 was found to be 38 nM; on human recombinant HDAC1, 1300 nM.
As to `C[C@@H]1CN(Cc2ccccc2-c2ccoc2)C[C@H](C)N1Cc1ccc(C(=O)NO)cc1` [Compound 348, 4-(((2S,6R)-4-(2-(furan-3-yl)benzyl)-2,6-dimethylpiperazin-1-yl)methyl)-N-hydroxybenzamide], the “HDAC6 selectivity (fold)” value on human recombinant HDAC6 stood at 6 fold. Moreover, the IC50 on human recombinant HDAC6 turned out to be 843 nM; on human recombinant HDAC1, 4700 nM.
The matching figures for `C[C@@H]1CN(Cc2ccc(C(=O)NO)cc2)C[C@H](C)N1Cc1ccc2ccccc2c1` [Compound 265, 4-(((3R,5S)-3,5-dimethyl-4-(naphthalen-2-ylmethyl)piperazin-1-yl)methyl)-N-hydroxybenzamide]: 84 fold, 74 nM and 6200 nM.
`C[C@@H]1CN(Cc2ccc(C(=O)NO)cc2)C[C@H](C)N1Cc1cccc(CN2CCN(S(C)(=O)=O)CC2)c1` [Compound 452, 4-(((3R,5S)-3,5-dimethyl-4-(3-((4-(methylsulfonyl)piperazin-1-yl)methyl)benzyl)piperazin-1-yl)methyl)-N-hydroxybenzamide]: at human recombinant HDAC6, the “HDAC6 selectivity (fold)” value is on record as 140 fold and the IC50 turned out to be 65 nM. In addition, the IC50 on human recombinant HDAC1 turned out to be 9100 nM.
The like results for `C[C@@H]1CN(Cc2ccc(C(=O)NO)cc2)C[C@H](C)N1C(=O)c1cccc(-c2cccnc2)c1` [Compound 246, 4-(((3R,5S)-3,5-dimethyl-4-(3-(pyridin-3-yl)benzoyl)piperazin-1-yl)methyl)-N-hydroxybenzamide] were, in that order, 26 fold, 129 nM and 3400 nM.
The matching figures for `C[C@@H]1CN(Cc2ccc(C(=O)NO)cc2F)C[C@H](C)N1Cc1cccc(CN2CCOCC2)c1` [Compound 696, 4-(((3R,5S)-3,5-dimethyl-4-(3-(morpholinomethyl)benzyl)piperazin-1-yl)methyl)-3-fluoro-N-hydroxybenzamide]: over 1000 fold, 10 nM and over 10000 nM.
The matching figures for `C[C@@H]1CN(Cc2ccc(C(=O)NO)cc2)C[C@H](C)N1Cc1ccc(CN2CCOCC2)cc1` [Compound 376, 4-(((3R,5S)-3,5-dimethyl-4-(4-(morpholinomethyl)benzyl)piperazin-1-yl)methyl)-N-hydroxybenzamide]: over 119 fold, 84 nM and over 10000 nM.
With `Cc1ccc(C(=O)N2[C@H](C)CN(Cc3ccc(C(=O)NO)cc3)C[C@@H]2C)cc1` [Compound 290, 4-(((3R,5S)-3,5-dimethyl-4-(4-methylbenzoyl)piperazin-1-yl)methyl)-N-hydroxybenzamide], on human recombinant HDAC6, the “HDAC6 selectivity (fold)” value stood at 48 fold and the IC50 is 79 nM. Moreover, at human recombinant HDAC1, the IC50 was 3800 nM.
The like results for `C[C@@H]1CN(Cc2ccc(C(=O)NO)cc2)C[C@H](C)N1Cc1cccc(-c2ccoc2)c1` [Compound 343, 4-(((3R,5S)-4-(3-(furan-3-yl)benzyl)-3,5-dimethylpiperazin-1-yl)methyl)-N-hydroxybenzamide] were, in that order, 328 fold, 27 nM and 8800 nM.
The matching figures for `C[C@@H]1CN(Cc2ccc(C(=O)NO)cc2)C[C@H](C)N1C(=O)c1cccc(Cl)c1` [Compound 121, 4-(((3R,5S)-4-(3-chlorobenzoyl)-3,5-dimethylpiperazin-1-yl)methyl)-N-hydroxybenzamide]: 407 fold, 29 nM and 11800 nM.
Consider `CC(C)CCN1CCN(Cc2cccc(C(=O)N3[C@H](C)CN(Cc4ccc(C(=O)NO)cc4)C[C@@H]3C)c2)CC1` [Compound 442, N-hydroxy-4-(((3R,5S)-4-(3-((4-isopentylpiperazin-1-yl)methyl)benzoyl)-3,5-dimethylpiperazin-1-yl)methyl)benzamide], for which, on human recombinant HDAC6, the “HDAC6 selectivity (fold)” value was 65 fold. The figures for the IC50 on human recombinant HDAC6 and on human recombinant HDAC1 were 120 nM and 7800 nM, respectively.
The matching figures for `CC(C)N1CCN(Cc2cccc(CN3[C@H](C)CN(Cc4ccc(C(=O)NO)cc4)C[C@@H]3C)c2)CC1` [Compound 430, N-hydroxy-4-(((3R,5S)-4-(3-((4-isopropylpiperazin-1-yl)methyl)benzyl)-3,5-dimethylpiperazin-1-yl)methyl)benzamide]: 55 fold, 82 nM and 4500 nM.
The like results for `C[C@@H]1CN(Cc2ccc(C(=O)NO)cc2)C[C@H](C)N1Cc1cccc(Cl)c1` [Compound 128, 4-(((3R,5S)-4-(3-chlorobenzyl)-3,5-dimethylpiperazin-1-yl)methyl)-N-hydroxybenzamide] were, in that order, 5540 fold, 2 nM and 11100 nM.
The matching figures for `C[C@@H]1CN(Cc2ccc(C(=O)NO)cc2)C[C@H](C)N1C(=O)CCc1ccccc1` [Compound 188, 4-(((3R,5S)-3,5-dimethyl-4-(3-phenylpropanoyl)piperazin-1-yl)methyl)-N-hydroxybenzamide]: 71 fold, 191 nM and 13600 nM.
For the molecule `CCCCN1[C@H](C)CN(Cc2ccc(C(=O)NO)cc2)C[C@@H]1C` [Compound 275, 4-(((3R,5S)-4-butyl-3,5-dimethylpiperazin-1-yl)methyl)-N-hydroxybenzamide], on human recombinant HDAC6, the “HDAC6 selectivity (fold)” value was over 21 fold and the IC50 was 475 nM. For the same molecule, at human recombinant HDAC1, the IC50 was over 10000 nM.
The like results for `C[C@@H]1CN(Cc2cccc(CN3CCCC3)c2)C[C@H](C)N1Cc1ccc(C(=O)NO)cc1` [Compound 479, 4-(((2S,6R)-2,6-dimethyl-4-(3-(pyrrolidin-1-ylmethyl)benzyl)piperazin-1-yl)methyl)-N-hydroxybenzamide] were, in that order, 12 fold, 433 nM and 5300 nM.
The matching figures for `CCCN1[C@H](C)CN(Cc2ccc(C(=O)NO)cc2)C[C@@H]1C` [Compound 148, 4-(((3R,5S)-3,5-dimethyl-4-propylpiperazin-1-yl)methyl)-N-hydroxybenzamide]: 132 fold, 117 nM and 15400 nM.
